What was measured:
[1] = molecular target: T1, Voltage-gated inwardly rectifying potassium channel KCNH2 (Homo sapiens, UniProt Q12809); test: Inhibition of hERG in HEK293 cells at -80 mV holding potential by automated patch clamp electrophysiology; assay type: toxicity, cell-based
MV4-11 [2] = test: Antitumor activity against human MV4-11 cells xenografted in BALB/c nude mouse assessed as tumor growth inhibition at 37.5 mg/kg, po administered once daily for 21 days and measured every other day relative to control; assay type: functional; details: MV4-11, 504 h, time 21 day, read-out: TGI
MV4-11 [3] = test: Antiproliferative activity against human MV4-11 cells assessed as inhibition of cell proliferation incubated for 72 hrs by CellTiterGlo luminescence assay; assay type: functional, cell-based; details: MV4-11, 72 h
MOLM-13 = test: Antiproliferative activity against human MOLM-13 cells assessed as inhibition of cell proliferation incubated for 72 hrs by CellTiterGlo luminescence assay; assay type: functional, cell-based; details: MOLM-13, 72 h
[4] = molecular target: T1, Voltage-gated inwardly rectifying potassium channel KCNH2; test: Inhibition of hERG expressed in HEK293 cells at -80 mV holding potential by whole-cell patch clamp technique; assay type: toxicity, cell-based
[5] = molecular target: T2, Bromodomain-containing protein 2 (Homo sapiens, UniProt P25440); test: Inhibition of BRD2 BD1 (unknown origin) using biotinylated tetra-acetylated H4 peptide SGRG-K(Ac)-GG-K(Ac)-GLG-K(Ac)-GGA-K(Ac)-RHRK-Biotin as substrate incubated for 1 hr by TR-FRET assay
[6] = molecular target: T3, Bromodomain-containing protein 3 (Homo sapiens, UniProt Q15059); test: Inhibition of BRD3 BD1 (unknown origin) using biotinylated tetra-acetylated H4 peptide SGRG-K(Ac)-GG-K(Ac)-GLG-K(Ac)-GGA-K(Ac)-RHRK-Biotin as substrate incubated for 1 hr by TR-FRET assay
[7] = molecular target: T4, Bromodomain testis-specific protein (Homo sapiens, UniProt Q58F21); test: Inhibition of BRDT BD1 (unknown origin) using biotinylated tetra-acetylated H4 peptide SGRG-K(Ac)-GG-K(Ac)-GLG-K(Ac)-GGA-K(Ac)-RHRK-Biotin as substrate incubated for 1 hr by TR-FRET assay
[8] = molecular target: T4, Bromodomain testis-specific protein; test: Inhibition of BRDT BD2 (unknown origin) using biotinylated tetra-acetylated H4 peptide SGRG-K(Ac)-GG-K(Ac)-GLG-K(Ac)-GGA-K(Ac)-RHRK-Biotin as substrate incubated for 1 hr by TR-FRET assay
[9] = molecular target: T3, Bromodomain-containing protein 3; test: Inhibition of BRD3 BD2 (unknown origin) using biotinylated tetra-acetylated H4 peptide SGRG-K(Ac)-GG-K(Ac)-GLG-K(Ac)-GGA-K(Ac)-RHRK-Biotin as substrate incubated for 1 hr by TR-FRET assay
[10] = molecular target: T2, Bromodomain-containing protein 2; test: Inhibition of BRD2 BD2 (unknown origin) using biotinylated tetra-acetylated H4 peptide SGRG-K(Ac)-GG-K(Ac)-GLG-K(Ac)-GGA-K(Ac)-RHRK-Biotin as substrate incubated for 1 hr by TR-FRET assay

T1 sequence (Q12809 whole entry): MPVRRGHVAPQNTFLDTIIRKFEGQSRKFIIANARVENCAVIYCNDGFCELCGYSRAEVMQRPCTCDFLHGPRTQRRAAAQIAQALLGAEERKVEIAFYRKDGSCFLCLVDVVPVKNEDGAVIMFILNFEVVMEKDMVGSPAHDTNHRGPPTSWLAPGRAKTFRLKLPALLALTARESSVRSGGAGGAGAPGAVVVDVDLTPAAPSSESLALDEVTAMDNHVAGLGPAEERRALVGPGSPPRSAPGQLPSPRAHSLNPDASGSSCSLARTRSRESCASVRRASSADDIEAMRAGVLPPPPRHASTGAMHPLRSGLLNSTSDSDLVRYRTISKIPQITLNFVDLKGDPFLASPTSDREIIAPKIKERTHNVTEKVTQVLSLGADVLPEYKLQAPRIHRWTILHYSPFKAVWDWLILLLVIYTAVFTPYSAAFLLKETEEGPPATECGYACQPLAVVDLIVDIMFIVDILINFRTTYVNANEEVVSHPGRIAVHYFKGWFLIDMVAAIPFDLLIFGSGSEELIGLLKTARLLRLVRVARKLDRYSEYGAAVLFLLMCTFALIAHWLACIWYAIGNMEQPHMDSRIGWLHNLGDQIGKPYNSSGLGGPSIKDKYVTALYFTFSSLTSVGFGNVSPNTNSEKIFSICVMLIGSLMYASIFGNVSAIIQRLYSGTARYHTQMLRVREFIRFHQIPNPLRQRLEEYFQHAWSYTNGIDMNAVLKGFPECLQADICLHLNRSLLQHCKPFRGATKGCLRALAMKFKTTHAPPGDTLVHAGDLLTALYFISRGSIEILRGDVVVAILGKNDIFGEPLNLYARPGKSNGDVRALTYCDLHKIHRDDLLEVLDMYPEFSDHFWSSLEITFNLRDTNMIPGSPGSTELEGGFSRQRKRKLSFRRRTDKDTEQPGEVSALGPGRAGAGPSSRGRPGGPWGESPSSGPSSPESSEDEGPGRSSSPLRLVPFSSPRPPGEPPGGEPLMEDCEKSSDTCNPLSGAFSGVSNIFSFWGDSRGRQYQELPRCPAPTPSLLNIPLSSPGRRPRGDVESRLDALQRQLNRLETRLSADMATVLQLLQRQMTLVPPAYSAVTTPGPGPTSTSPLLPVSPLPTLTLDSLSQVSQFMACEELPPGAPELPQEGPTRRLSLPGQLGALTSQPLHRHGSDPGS
T2 sequence (P25440 whole entry): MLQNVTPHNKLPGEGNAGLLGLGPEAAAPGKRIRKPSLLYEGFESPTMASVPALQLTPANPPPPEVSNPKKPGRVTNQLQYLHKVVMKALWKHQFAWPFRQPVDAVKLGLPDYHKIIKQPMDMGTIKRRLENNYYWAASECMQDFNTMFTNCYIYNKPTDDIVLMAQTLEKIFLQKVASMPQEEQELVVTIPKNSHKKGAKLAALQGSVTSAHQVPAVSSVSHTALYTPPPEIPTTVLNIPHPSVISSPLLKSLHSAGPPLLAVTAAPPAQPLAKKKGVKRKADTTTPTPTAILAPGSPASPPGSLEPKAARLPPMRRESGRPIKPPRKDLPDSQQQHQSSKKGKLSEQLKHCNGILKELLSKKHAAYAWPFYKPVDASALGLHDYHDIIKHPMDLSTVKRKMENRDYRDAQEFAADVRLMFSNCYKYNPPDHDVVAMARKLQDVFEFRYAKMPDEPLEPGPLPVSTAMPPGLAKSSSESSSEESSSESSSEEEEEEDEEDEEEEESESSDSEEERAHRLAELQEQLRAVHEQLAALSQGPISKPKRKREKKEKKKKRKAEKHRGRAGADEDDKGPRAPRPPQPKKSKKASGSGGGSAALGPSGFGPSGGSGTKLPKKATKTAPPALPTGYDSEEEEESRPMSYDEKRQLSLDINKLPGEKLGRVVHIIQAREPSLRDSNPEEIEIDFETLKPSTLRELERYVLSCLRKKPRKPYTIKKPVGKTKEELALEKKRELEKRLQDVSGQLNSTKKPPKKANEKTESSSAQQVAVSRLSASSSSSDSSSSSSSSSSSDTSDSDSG
T3 sequence (Q15059 whole entry): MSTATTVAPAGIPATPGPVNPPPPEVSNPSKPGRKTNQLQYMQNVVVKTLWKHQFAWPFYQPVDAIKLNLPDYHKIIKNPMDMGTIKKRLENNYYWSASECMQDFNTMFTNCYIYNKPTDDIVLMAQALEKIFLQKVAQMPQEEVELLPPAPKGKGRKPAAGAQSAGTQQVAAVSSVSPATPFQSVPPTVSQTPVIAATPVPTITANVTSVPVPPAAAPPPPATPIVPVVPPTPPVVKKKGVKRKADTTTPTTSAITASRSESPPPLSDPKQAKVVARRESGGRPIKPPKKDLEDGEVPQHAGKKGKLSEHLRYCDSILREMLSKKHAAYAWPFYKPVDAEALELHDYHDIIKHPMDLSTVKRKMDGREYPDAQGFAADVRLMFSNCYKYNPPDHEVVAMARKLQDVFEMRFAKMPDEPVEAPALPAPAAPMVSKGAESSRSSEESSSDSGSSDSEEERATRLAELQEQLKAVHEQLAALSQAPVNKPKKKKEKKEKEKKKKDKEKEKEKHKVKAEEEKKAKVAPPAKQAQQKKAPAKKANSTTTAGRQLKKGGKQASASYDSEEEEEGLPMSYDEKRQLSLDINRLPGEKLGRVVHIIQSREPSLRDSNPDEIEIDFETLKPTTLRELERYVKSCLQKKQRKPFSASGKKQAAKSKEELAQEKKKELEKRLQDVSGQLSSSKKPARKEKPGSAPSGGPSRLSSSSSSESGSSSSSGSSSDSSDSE

Row | IC50 (MV4-11 [3]) [nM] | IC50 (MOLM-13) [nM] | IC50 [5] [nM] | IC50 [6] [nM] | IC50 [7] [nM] | IC50 [8] [nM] | IC50 [9] [nM] | IC50 [10] [nM] | SMILES | IC50 [1] [nM] | inhibition in vivo at 37.5 mg/kg (MV4-11 [2]) [%] | IC50 [4] [nM]
1 | – | – | – | – | – | – | – | – | CCNC(=O)COc1cc(=O)n(C)cc1-c1cc(C(C)(C)O)ccc1Oc1c(C)cccc1C | > 30000 | – | –
2 | 15 | 39 | – | – | – | – | – | – | CCNC(=O)c1cc2c(-c3cc(C(C)(C)O)ccc3Oc3c(C)cc(F)cc3C)cn(C)c(=O)c2[nH]1 [ABBV-744] | 2800 | 55 | 3100
3 | – | – | 13500 | 12800 | 4390 | 9.7 | 15.9 | 11.1 | Cc1cc(F)cc(C)c1Oc1ccc(C(C)(C)O)cc1-c1cn(C)c(=O)cc1NCC(=O)N1CCOCC1 | > 30000 | – | –

Reference: ChEMBL document CHEMBL5537163, “Discovery of Novel Phenoxyaryl Pyridones as Bromodomain and Extra-Terminal Domain (BET) Inhibitors with High Selectivity for the Second Bromodomain (BD2) to Potentially Treat Acute Myeloid Leukemia” (J Med Chem, 2024)
